Reference: ChEMBL document CHEMBL1201862, “PubChem BioAssay data set” (2004)
The source made the active and inactive calls.

Assays:
Cytochrome P450 3A4 = Cytochrome P450 3A4 (Homo sapiens, UniProt P08684); conditions: Potency;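 note: confirmatory qHTS run detecting inhibitors and substrates of CYP3A4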
[1] = target: Induced myeloid leukemia cell differentiation protein Mcl-1 (Homo sapiens, UniProt Q07820); format: functional
[2] = target: T1, Calpain-2 catalytic subunit (Sus scrofa, UniProt P43367); test: pig calpain II inhibitor potency, dose response, biochemical, fluorogenic peptide substrate (AID 1420); format: functional
T1 sequence (P43367 whole entry): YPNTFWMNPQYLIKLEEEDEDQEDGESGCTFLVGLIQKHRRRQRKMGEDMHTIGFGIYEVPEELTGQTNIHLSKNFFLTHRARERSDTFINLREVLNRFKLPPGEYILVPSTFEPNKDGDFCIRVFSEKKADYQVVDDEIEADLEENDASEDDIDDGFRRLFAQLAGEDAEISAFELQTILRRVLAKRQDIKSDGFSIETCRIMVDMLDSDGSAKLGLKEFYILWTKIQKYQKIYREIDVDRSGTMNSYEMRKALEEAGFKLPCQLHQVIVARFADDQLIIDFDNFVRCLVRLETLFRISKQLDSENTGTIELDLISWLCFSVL

H9c2 = test: cells; format: functional, cell-based; conditions: Rattus norvegicus, H9c2, Myocardium;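 note: confirmatory concentration-response retest of ultra-high-throughput screening hits for modulation of myocardial damage; cell death induced by hydrogen peroxide oxidative stress; compound pretreatment for 60 min then peroxide exposure for 2 h; potency is for protecting the cells against peroxide damage rather than for killing them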
[3] = target: FAD-linked sulfhydryl oxidase ALR (Homo sapiens, UniProt P55789); test: inhibitors of human ALR sulfhydryl oxidase, dose response, biochemical, H2O2 detection, luminescence, cherry-pick (AID 493248)
cells = format: functional
Large T antigen = Large T antigen (Simian virus 40, UniProt P03070); format: functional, Betapolyomavirus macacae;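 note: Confirmatory-stage PubChem screen for compounds that inhibit SV40 T antigen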
Leucine aminopeptidase = target: T2, Leucine aminopeptidase (Plasmodium falciparum 3D7, UniProt Q8IL11); test: P. falciparum M17LAP inhibitors, primary screen, biochemical, fluorogenic H-Leu-NHMec substrate, 1536-well (AID 1619); format: functional
T2 sequence (Q8IL11 whole entry): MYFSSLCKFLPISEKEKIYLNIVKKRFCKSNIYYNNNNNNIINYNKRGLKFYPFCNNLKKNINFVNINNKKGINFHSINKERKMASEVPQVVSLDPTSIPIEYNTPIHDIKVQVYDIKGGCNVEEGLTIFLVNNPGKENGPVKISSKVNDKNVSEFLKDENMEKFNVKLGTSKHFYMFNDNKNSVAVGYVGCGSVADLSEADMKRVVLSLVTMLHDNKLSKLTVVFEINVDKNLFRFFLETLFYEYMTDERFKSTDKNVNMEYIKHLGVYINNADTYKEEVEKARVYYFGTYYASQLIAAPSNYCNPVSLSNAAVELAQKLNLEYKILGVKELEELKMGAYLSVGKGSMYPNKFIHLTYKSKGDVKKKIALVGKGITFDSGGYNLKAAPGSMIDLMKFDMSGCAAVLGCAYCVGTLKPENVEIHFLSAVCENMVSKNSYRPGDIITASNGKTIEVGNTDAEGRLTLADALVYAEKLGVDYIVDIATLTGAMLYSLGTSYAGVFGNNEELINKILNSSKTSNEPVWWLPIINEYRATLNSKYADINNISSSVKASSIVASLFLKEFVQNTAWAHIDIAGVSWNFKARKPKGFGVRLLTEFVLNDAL

[4] = target: T3, Rac GTPase-activating protein 1 (Homo sapiens, UniProt Q9H0H5); test: MgcRacGAP GTPase-activating activity inhibitors, confirmation, biochemical, ADP Hunter fluorescence, primary and confirmatory (AID 624330); format: functional
T3 sequence (Q9H0H5 whole entry): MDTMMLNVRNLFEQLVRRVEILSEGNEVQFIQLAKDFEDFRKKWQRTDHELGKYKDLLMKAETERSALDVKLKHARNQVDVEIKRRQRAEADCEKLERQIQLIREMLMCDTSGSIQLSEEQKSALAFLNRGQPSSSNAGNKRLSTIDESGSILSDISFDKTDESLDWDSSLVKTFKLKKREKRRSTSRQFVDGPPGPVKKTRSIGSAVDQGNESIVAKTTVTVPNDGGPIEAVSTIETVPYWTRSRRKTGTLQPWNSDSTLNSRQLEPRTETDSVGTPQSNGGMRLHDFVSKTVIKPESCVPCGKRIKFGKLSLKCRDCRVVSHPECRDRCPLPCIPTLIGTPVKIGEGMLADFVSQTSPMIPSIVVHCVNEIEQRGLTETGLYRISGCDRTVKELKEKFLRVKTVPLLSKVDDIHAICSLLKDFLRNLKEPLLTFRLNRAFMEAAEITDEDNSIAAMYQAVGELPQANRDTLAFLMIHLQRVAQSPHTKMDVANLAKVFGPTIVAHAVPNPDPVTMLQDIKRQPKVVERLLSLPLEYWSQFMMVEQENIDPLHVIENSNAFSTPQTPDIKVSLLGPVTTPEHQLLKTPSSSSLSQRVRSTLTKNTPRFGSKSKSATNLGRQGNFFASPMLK

Genome polyprotein = Genome polyprotein (dengue virus type 2, UniProt P29990); test: Dengue-2 NS5 methyltransferase inhibitors, primary screen, biochemical, confirmation dose response (AID 588689); format: functional
[5] = target: T4, Corticotropin-releasing factor receptor 2/Corticotropin-releasing factor-binding protein (Homo sapiens, UniProt P24387+Q13324); test: activators of CRF receptor 2 with binding protein – uHTS hits, confirmation (AID 602473); format: functional; conditions: read-out: EC50_Mean
T4 sequence (Q13324 whole entry): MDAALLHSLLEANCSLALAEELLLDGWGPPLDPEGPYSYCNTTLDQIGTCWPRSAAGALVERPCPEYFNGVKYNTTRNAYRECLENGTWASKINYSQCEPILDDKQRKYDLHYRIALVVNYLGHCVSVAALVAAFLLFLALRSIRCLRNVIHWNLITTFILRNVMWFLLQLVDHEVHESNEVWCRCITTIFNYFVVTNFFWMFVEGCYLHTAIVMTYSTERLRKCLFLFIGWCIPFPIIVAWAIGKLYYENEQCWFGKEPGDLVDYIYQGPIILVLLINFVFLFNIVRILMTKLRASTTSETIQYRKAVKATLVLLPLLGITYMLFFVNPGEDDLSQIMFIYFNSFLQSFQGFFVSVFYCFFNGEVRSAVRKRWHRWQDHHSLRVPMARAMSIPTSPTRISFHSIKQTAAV
T4 sequence (P24387 whole entry): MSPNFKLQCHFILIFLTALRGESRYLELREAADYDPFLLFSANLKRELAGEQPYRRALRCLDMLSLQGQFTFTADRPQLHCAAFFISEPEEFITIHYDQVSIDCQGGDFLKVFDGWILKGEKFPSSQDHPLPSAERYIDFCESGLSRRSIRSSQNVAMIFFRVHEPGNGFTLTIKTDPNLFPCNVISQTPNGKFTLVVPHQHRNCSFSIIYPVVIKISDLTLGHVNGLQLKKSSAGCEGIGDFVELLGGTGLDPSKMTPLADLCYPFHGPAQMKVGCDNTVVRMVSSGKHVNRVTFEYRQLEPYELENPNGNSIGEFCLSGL

[6] = inhibitors of firefly luciferase expression or activity, dose response, H4 neuroglioma cells, luminescence (AID 1990); format: functional, cell-based
[7] = Luminescence Cell-Based Dose Response HTS to Identify Inhibitors of 5'UTR Stem-Loop Driven Prion Protein mRNA Translation in H4 Neuroglioblastoma Cells. [Related pubchem assays: 1827 (Project Summary), 1813 (Primary HTS)]; format: functional
[8] = inhibitors of SNCA 5'UTR-driven reporter translation, confirmation, H4 neuroglioma cells, luminescence (AID 1988); format: functional, cell-based
[9] = inhibitors of intracellular T. cruzi replication, confirmation, NIH3T3 host cells, beta-gal luminescence (AID 2044); format: functional, cell-based;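 note: intracellular parasites grown in NIH/3T3 mouse fibroblasts as host cells; luminescent beta-galactosidase reporter signal from transgenic T. cruzi replicating inside host cells; inhibitors lower the luminescence signal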
[10] = cytotoxicity toward NIH3T3 fibroblasts, dose response, counter-screen, cell-based, ATP luminescence, mouse fibroblasts (AID 2010); format: functional;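 note: cells exposed to compound for about 90 hours before reading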
[11] = Luminescence Cell-Based Dose Response HTS to Identify Activators of Luciferase Translation or Activity in H4 […] Cells. [Related pubchem assays: 1829 (Project Summary), 1814 (Primary HTS)]; format: functional
H4 = test: Luminescence Cell-Based Dose Response HTS to Identify Activators of 5'UTR Stem-Loop Driven Prion Protein mRNA Translation in H4 Neuroglioblastoma Cells. [Related pubchem assays: 1829 (Project Summary), 1814 (Primary HTS)]; format: functional; conditions: Homo sapiens
Cytochrome P450 2D6 = Cytochrome P450 2D6 (Homo sapiens, UniProt P10635);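 note: CYP2D6 member of a cytochrome P450 panel assay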
Sequence of Cytochrome P450 2D6 (P10635 whole entry): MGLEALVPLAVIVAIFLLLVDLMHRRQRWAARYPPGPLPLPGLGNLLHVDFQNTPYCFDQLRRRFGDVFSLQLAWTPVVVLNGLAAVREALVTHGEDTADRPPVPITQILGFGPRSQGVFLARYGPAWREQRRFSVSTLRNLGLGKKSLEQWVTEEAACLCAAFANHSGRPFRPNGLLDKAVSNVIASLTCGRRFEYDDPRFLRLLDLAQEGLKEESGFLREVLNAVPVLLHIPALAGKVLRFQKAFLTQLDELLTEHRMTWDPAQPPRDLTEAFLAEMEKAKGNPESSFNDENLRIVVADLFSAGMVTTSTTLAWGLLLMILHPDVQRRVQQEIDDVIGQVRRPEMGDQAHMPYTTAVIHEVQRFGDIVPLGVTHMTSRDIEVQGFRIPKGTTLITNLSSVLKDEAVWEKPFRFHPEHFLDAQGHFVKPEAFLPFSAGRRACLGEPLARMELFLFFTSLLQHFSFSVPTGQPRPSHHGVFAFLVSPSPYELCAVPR

Sequence of Large T antigen (P03070 whole entry): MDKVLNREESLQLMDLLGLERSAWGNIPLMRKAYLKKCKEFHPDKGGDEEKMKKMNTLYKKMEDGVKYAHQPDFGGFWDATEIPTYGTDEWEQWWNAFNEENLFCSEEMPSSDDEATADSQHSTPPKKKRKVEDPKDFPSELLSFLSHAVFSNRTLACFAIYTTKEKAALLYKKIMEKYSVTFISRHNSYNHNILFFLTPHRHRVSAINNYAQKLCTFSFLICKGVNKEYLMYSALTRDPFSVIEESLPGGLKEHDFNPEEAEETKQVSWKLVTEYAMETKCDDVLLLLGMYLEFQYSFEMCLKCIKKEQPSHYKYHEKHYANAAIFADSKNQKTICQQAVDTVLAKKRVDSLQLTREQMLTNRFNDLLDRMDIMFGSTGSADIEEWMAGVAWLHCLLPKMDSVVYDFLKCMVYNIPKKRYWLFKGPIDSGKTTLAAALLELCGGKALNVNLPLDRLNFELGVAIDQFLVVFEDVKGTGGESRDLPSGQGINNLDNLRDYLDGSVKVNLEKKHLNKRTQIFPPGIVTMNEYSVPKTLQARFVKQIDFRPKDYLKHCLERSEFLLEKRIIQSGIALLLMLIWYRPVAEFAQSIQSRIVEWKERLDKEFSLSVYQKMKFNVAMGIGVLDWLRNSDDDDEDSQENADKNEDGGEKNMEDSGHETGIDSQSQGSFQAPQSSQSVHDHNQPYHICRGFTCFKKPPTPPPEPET
Sequence of FAD-linked sulfhydryl oxidase ALR (P55789 whole entry): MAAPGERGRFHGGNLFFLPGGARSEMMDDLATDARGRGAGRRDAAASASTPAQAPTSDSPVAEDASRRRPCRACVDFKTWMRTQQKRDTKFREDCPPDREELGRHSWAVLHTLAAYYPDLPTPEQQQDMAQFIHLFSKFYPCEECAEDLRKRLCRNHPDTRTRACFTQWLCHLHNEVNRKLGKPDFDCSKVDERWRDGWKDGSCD
Sequence of Induced myeloid leukemia cell differentiation protein Mcl-1 (Q07820 whole entry): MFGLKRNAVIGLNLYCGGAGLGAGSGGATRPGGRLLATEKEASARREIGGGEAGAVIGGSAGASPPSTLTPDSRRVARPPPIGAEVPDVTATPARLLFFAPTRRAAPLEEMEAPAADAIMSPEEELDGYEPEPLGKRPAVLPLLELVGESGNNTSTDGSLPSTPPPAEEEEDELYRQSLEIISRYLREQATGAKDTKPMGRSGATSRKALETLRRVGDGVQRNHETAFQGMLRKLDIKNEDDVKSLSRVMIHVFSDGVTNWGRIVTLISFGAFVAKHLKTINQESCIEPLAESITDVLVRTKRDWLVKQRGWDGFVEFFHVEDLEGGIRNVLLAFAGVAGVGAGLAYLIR
Sequence of Genome polyprotein (P29990 2492-3391 limits assumed): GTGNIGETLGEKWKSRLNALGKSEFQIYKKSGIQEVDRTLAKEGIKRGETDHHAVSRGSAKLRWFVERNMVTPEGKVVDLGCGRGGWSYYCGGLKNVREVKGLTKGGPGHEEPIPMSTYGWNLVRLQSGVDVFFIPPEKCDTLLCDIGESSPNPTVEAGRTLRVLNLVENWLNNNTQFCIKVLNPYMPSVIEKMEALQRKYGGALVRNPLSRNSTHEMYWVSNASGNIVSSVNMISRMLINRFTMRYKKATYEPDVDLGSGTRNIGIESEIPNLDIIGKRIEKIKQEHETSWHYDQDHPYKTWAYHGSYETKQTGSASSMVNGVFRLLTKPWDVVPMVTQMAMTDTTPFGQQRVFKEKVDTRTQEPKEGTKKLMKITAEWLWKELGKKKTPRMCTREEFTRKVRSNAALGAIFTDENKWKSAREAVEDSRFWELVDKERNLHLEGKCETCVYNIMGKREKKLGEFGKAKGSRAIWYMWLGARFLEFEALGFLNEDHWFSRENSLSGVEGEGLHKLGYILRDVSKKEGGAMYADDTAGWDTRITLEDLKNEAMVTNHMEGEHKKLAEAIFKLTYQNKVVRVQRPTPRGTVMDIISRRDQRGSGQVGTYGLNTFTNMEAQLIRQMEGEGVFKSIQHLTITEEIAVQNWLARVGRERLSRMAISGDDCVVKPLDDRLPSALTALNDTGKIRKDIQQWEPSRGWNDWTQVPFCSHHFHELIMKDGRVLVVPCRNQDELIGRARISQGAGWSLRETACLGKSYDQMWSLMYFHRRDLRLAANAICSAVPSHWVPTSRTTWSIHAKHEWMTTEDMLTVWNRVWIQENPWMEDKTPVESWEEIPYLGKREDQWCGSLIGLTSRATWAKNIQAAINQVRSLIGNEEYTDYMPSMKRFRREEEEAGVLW
Sequence of Cytochrome P450 3A4 (P08684 whole entry): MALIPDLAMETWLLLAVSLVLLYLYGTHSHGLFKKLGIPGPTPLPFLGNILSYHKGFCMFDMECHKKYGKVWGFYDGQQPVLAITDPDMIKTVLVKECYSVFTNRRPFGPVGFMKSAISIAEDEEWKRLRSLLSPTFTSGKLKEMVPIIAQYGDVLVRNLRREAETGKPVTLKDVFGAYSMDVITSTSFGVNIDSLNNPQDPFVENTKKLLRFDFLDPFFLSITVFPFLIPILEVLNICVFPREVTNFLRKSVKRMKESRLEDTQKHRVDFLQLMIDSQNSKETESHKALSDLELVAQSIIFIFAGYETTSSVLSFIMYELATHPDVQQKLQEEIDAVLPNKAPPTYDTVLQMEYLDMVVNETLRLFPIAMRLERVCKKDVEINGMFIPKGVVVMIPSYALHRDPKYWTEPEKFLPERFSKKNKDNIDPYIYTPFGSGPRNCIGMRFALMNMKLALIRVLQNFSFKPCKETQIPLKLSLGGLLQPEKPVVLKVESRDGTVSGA

COc1ccc(-c2coc3ccc(OC4OC(COC(C)=O)C(OC(C)=O)C(OC(C)=O)C4OC(C)=O)cc3c2=O)cc1 (stereo not drawn)
AC50 (Cytochrome P450 3A4): 1.58 µM (inconclusive)

COC(=O)C1(C)C=CC2(CCCCC2)N1C(C)=O (stereo not drawn)
AC50 (Cytochrome P450 3A4): 15.8 µM (inconclusive)

Cn1c(=O)c(C(=O)COC(=O)c2cc(-c3ccco3)nc3ccccc23)c(N)n(CC2CC2)c1=O
IC50 [1]: 1.99 µM (active)

COc1ccccc1N1CCN(C(=O)c2ccc(CSc3ccccc3)cc2)CC1
IC50 [2]: 8.99 µM (not active)

Cn1c(=O)n(CCc2ccccc2)c(=O)c2c1nc1n2CCCN1Cc1ccccc1
IC50 (H9c2): > 79 µM (inactive)

O=C(NCC(c1cccnc1)N1CCN(c2ccccc2)CC1)OCc1ccccc1 (stereo not drawn)
AC50 [3]: 6.15 µM (active)

O=C(Nc1cccc(C(=O)O)c1)/C(=C\C=C\c1ccccc1)NC(=O)c1ccccc1
IC50 [2]: 13.6 µM (not active)

CCS(=O)(=O)N1Cc2ccccc2CC1C(=O)N1CCN(c2ccccc2)CC1 (stereo not drawn)
AC50 [3]: 12.1 µM (active)

COC(=O)COc1ccc2cc(-c3ccc(OC)cc3)c(=O)oc2c1
IC50 (cells): 1.12 µM (active)

CCOC(=O)c1cnc(SC)nc1Oc1cccc(NC(=O)c2cccc(Cl)c2Cl)c1
IC50 (H9c2): > 79 µM (inactive)

O=C1NC(Cc2ccc(O)cc2)c2nc3ccc(F)cc3c(=O)n2-c2cc3ccccc3cc21 (stereo not drawn)
IC50 (H9c2): > 79 µM (inactive)

COc1ccc(CCNC(=O)c2cc(C(=O)c3cc(C)ccc3O)cn(CCc3ccc(OC)cc3)c2=O)cc1
IC50 (H9c2): > 79 µM (inactive)

CN(C)c1ccc(NC(=O)CN2CCN(CC(=O)Nc3ccc(F)cc3)CC2)cc1
IC50 (Large T antigen): 17.2 µM (active)

Cc1cc(O)nc(SCC(=O)Nc2ccccc2C#N)c1C#N
IC50 (Leucine aminopeptidase): 13.9 µM (active)

O=[N+]([O-])c1c(O)nc(/C=C\c2ccc(O)cc2)nc1O
AC50 [3]: 4.4 µM (active) | IC50 [4]: 50.6 µM (active)

O=C(O)c1ccc(N2C(=O)/C(=C/c3nc4ccccc4[nH]3)SC2=S)cc1
AC50 [3]: 0.009 µM (active)

COC(=O)c1ccc(COC(=O)c2ccccn2)cc1
IC50 (cells): 26.6 µM (active)

CC1CCN(C(=O)COC(=O)c2cc3ccccc3cc2O)CC1
IC50 (cells): 0.9 µM (active)

COc1ccc(C(CC(=O)N2CCN(c3ccccc3)CC2)c2c(OC)cc(OC)c3ccc(=O)oc23)cc1 (stereo not drawn)
IC50 (H9c2): 11.4 µM (active)

Cc1ccc(C(=O)Nc2nc(-c3ccc([N+](=O)[O-])cc3)cs2)o1
AC50 [3]: 0.675 µM (active)

Cc1ccc(NC(=O)CN(C)C(=O)CCCN2C(=O)c3ccccc3C2=O)cc1
IC50 [2]: 10.3 µM (not active)

O=C(O)C1CC=CCC1C(=O)Nc1ccc2c(c1)OCCO2 (stereo not drawn)
IC50 (Leucine aminopeptidase): 13.4 µM (active)

CCCCCc1c2c(cc(O)c1C(=O)O)OC(=O)c1cc(C(=O)CCCC)c(OC)cc1O2
IC50 (Genome polyprotein): 39 µM (active)

O=C(Nc1ccc(Oc2ccccc2)cc1)C1CCCN(c2ncccn2)C1 (stereo not drawn)
IC50 [2]: 14.7 µM (not active) | EC50 [5]: > 53 µM (inactive)

CCOC(=O)c1ccc(S(=O)(=O)Nc2nc3cc(S(=O)(=O)NC4=NCCCCC4)ccc3s2)cc1
IC50 (Large T antigen): 33.4 µM (active) | IC50 [4]: 107 µM (active)

C/C(=N\Nc1cccc(C(=O)O)c1)c1ccc2c(c1)Nc1ccccc1S2
IC50 [1]: 0.431 µM (active) | IC50 (Genome polyprotein): > 100 µM (active)

c1csc(-c2nc3ccccn3c2NC2CCCCC2)c1
AC50 [3]: 0.678 µM (active)

Cn1c(NCc2ccccc2)nc2c1c(=O)n(Cc1ccc(Br)cc1)c(=O)n2C
EC50 [6]: 13.5 µM (active) | EC50 [7]: 18 µM (active) | EC50 [8]: 12.4 µM (active) | IC50 [2]: 5.48 µM (active)

CCOC(=O)N1CCC(N2CCCC(C(=O)c3ccc4cc(OC)ccc4c3)C2)CC1 (stereo not drawn)
EC50 [9]: 1.12 µM (active) | EC50 [10]: 56.6 µM (active) | IC50 (cells): 21.9 µM (active)

Cc1cc(C)c(NC(=O)Cn2cc3c(n2)CCCC3)c(C)c1
IC50 [2]: 20.5 µM (not active)

O=C(CC1SC(=O)N(c2ccccc2)C1=O)Nc1cccc2ccccc12 (stereo not drawn)
IC50 (Large T antigen): 70.4 µM (active)

CC(=O)N1CCN=C1SCc1ccccc1F
AC50 [3]: 13.9 µM (active)

COc1ccc(OC)c(C(=O)N2CCCC(Nc3ccc(F)cc3)C2)c1 (stereo not drawn)
AC50 [3]: 1.92 µM (active)

CCOC(=O)CSc1nc2c(sc(=S)n2-c2ccccc2)c(=O)[nH]1
IC50 (Leucine aminopeptidase): 35.6 µM (active)

CN(C)c1ccc(CNC(=O)c2cc(S(=O)(=O)N3CCCC3)cn2C)cc1
AC50 [3]: 8.78 µM (active)

CC(=O)c1sc2nc(-c3cccs3)ccc2c1N
EC50 [11]: > 120 µM (not active) | EC50 (H4): 33.2 µM (inconclusive) | IC50 [1]: 7.08 µM (not active)

COc1cc(/C=N/Nc2nc3ccccc3nc2O)ccc1O
IC50 (Large T antigen): 18 µM (active)

O=C(CCCn1c(SCC(=O)c2ccc(O)c(O)c2)nc2ccccc2c1=O)NCC1CCCO1 (stereo not drawn)
IC50 (H9c2): 17.4 µM (active)

CC1=NNC(=O)C1CC(=O)N/N=C(\C)c1cccs1 (stereo not drawn)
IC50 (Leucine aminopeptidase): 3.56 µM (active)

CNC(=O)c1ccc(-c2sc3nc(N4CCOCC4)c4c(c3c2N)CC(C)(C)OC4)o1
IC50 (Large T antigen): 2.6 µM (active) | IC50 (H9c2): > 79 µM (inactive) | AC50 (Cytochrome P450 2D6): 15.8 µM (inconclusive)
